Results taken from patent US20240000724A1, “Compositions and Methods for Treatment or Prevention of Oral Mucositis” (PATHWAYS BIOSCIENCE, LLC, priority 2015, published 2024).
“Also recorded” adds a separate entry of the source.

How the values were obtained:
[1] = tested on: Nrf2 signaling pathway (HepG2 cells); assay: Short exposure time course of Nrf2 activation in HepG2 Nrf2-driven promoter luciferase reporter cells; format: cell-based, human; details: 5 minutes exposure, washed off, read 24 hours later; compared with 1 or 2 hours exposure
Method: As an example of the short time course of PB201 exposure needed to activate the Nrf2 signaling pathway, HepG2 cells stably transfected with a Nrf2-driven promoter, luciferase reporter construct were treated with PB201 for 5 minutes, 1 hour, or 2 hours, then the PB201 was removed and washed off the cells, then 24 hours later the luciferase levels were measured by chemiluminescence to assay for Nrf2 activation.

[2] = tested on: radiation-induced oral mucositis (cheek pouch ulceration); assay: Radiation-induced oral mucositis in hamster cheek pouch; format: in vivo, Syrian Golden Hamsters; details: 40 Gy day 0; topical cheek pouch 1 to 10 μg PB201 3×/day days 0 to 28; scored days 6 to 28
Method: In this example, a single dose of radiation (40 Gy) was given on day 0 to the isolated cheek pouch and PB201 treatment was given by topical cheek pouch administration of 1 to 10 μg PB201 given three times daily from days 0 to 28 as 0.2 mL of 5 μg/mL given 3×/day or 0.2 mL of 50 μg/mL given 3×/day, and oral mucositis was determined as cheek pouch ulceration, scored every 2 days from days 6 to 28. Mucositis was scored visually by comparison to a validated photographic scale, ranging from 0 (normal) to 5 (severe ulceration). In descriptive terms, this scale is defined as follows.
A score of 1-2 is considered to represent a mild stage of the disease, whereas a score of 3-5 is considered to indicate moderate to severe mucositis.

[3] = tested on: Nrf2 (ARE-driven luciferase gene expression); assay: ARE-driven luciferase promoter-reporter assay in stably transfected human cancer cell lines; format: cell-based
Method: As an example of the properties of PB201, cell lines were cultured which had been stably transfected with constructs of the luciferase gene. This luciferase gene was driven in its promoter region by copies of the ARE Nrf2-binding sequence, known as promoter-reporter constructs (Simmons, Fan, Yeoman, Wakefield and Ramabhadran, NRF2 Oxidative Stress Induced by Heavy Metals is Cell Type Dependent, Curr Chem Genomics 5, 1-12 (2011); Shukla, Huang, Simmons, Tice, Witt, Vanleer, Ramabhadran, Austin and Xia, Profiling environmental chemicals for activity in the antioxidant response element signaling pathway using a high throughput screening approach, Environ Health Perspect 120, 1150-1156 (2012)).
Briefly, the stably transfected cells of types HepG2 (human liver), AREc32 (human breast), MCF7 (human breast), A549 (human lung), 293T (human kidney), and A172 (human brain) were seeded at low density in 24-well plates and incubated at 37° C. with 10% CO2. After 24 h various concentrations of combinations of agents were added to the cells. After an additional 18 h of incubation, the cells were lysed in their wells with 100 μl of a lysing buffer that contains 3.5 mM sodium pyrophosphate to stabilize light output by luciferase. A 20 μl aliquot of cell lysate was added to a small test tube, placed in a BD Monolight 3010 luminometer for background luminescence, and then 50 μl of 1 mM luciferin was injected into the tube. Relative Light Units integrated for 10 sec were measured for each sample.

## O=C(CC(=O)c1ccccc1)c1ccccc1 [PB201, 1,3-diphenyl-1,3-propanedione]
[1]
  Nrf2 response (luciferase chemiluminescence): strong Nrf2 response similar to 1 or 2 hours of exposure
[2]
  Protection against oral mucositis (cheek pouch ulceration score 0-5): protected against the oral mucositis
[3]; A172 human brain cell line, other experiments (FIG. 5)
  Induction of Nrf2-dependent luciferase gene expression: lower, but measurable, induction
[3]; brain cells (A172), this experiment (FIGS. 2-4)
  Nrf2 gene activation and luciferase expression: no activation
[3]; breast cells (AREc32, MCF7), 18 h incubation
  Nrf2 gene activation and luciferase expression: exhibited Nrf2 gene activation and luciferase expression
[3]; kidney cells (293T), 18 h incubation
  Nrf2 gene activation and luciferase expression: exhibited Nrf2 gene activation and luciferase expression
[3]; liver cells (HepG2), 18 h incubation
  Nrf2 gene activation and luciferase expression: exhibited Nrf2 gene activation and luciferase expression
[3]; lung cells (A549; constitutive Nrf2 activation due to mutation)
  Nrf2 gene activation and luciferase expression: lesser activation; also recorded: low or negative response
